# Read-outs that look alike come from different tables or passages of the source.
# What was measured:
# [1] = target: GSK3α (GST-full length GSK3α) (Homo sapiens (Human), UniProt P49840); test: GSK3α TR-FRET kinase assay; type: biochemical
# In short: (§1)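 IC50s came from the normalized 665/615 TR-FRET ratio after Tb-anti-pSer641 antibody and streptavidin-d2 detection of phosphorylated biotin-glycogen synthase peptide (200 nM). ATP was 4 μM for GSK3α, 2 μM for GSK3b, or 1 mM; 1 nM enzyme, 100 min, ambient, pH 7.5, after 30-min compound preincubation.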
# [2] = target: GSK3b (GST-full length GSK3b) (Homo sapiens (Human), UniProt P49841); test: GSK3b TR-FRET kinase assay; type: biochemical
# GSK3b (GST-full length GSK3b), sequence (P49841 whole entry): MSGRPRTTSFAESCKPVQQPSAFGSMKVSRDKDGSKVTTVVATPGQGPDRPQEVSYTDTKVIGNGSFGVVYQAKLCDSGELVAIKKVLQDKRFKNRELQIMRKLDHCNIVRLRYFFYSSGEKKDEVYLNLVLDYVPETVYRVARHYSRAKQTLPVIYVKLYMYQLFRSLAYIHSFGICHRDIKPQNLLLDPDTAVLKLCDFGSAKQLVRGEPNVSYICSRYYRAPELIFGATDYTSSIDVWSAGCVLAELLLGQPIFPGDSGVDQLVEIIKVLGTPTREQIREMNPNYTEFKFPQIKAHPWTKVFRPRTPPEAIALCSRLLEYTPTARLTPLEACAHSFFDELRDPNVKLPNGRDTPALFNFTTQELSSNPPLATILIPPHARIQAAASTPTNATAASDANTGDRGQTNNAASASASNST
# In short: as §1
# [3] = 1 nM GSK3α, 4 μM ATP, 30 minute preincubation, Table 16, read-out: GSK3-A TR-FRET BIOCHEMICAL (TR-FRET)
# [4] = 1 nM GSK3b, 2 μM ATP, 30 minute preincubation, Table 16, read-out: GSK3-B TR-FRET BIOCHEMICAL (TR-FRET)
# [5] = 1 nM GSK3α, 4 μM ATP, 30 minute preincubation, geometric mean, read-out: GSK3-A TR-FRET BIOCHEMICAL (TR-FRET), GMean, IC50
# [6] = 1 nM GSK3b, 2 μM ATP, 30 minute preincubation, geometric mean, read-out: GSK3-B TR-FRET BIOCHEMICAL (TR-FRET), GMean, IC50
# [7] = 1 nM GSK3α, 4 μM ATP, 30 minute preincubation, Table 16, read-out: GSK3-A TR-FRET BIOCHEMICAL (TR-FRET), IC50
# [8] = 1 nM GSK3b, 2 μM ATP, 30 minute preincubation, Table 16, read-out: GSK3-B TR-FRET BIOCHEMICAL (TR-FRET), IC50
# [9] = 1 nM GSK3α, 4 μM ATP, 30 minute preincubation, read-out: GSK3-A TR-FRET BIOCHEMICAL (TR-FRET), IC50
# [10] = 1 nM GSK3b, 2 μM ATP, 30 minute preincubation, read-out: GSK3-B TR-FRET BIOCHEMICAL (TR-FRET), IC50
# [11] = read-out: GSK3-A (TR-FRET 1 mM ATP), GMean, IC50, 1 mM ATP, geometric mean
# [12] = read-out: GSK3-B (TR-FRET 1 mM ATP), GMean, IC50, 1 mM ATP, geometric mean
# GSK3α (GST-full length GSK3α), sequence (P49840 whole entry): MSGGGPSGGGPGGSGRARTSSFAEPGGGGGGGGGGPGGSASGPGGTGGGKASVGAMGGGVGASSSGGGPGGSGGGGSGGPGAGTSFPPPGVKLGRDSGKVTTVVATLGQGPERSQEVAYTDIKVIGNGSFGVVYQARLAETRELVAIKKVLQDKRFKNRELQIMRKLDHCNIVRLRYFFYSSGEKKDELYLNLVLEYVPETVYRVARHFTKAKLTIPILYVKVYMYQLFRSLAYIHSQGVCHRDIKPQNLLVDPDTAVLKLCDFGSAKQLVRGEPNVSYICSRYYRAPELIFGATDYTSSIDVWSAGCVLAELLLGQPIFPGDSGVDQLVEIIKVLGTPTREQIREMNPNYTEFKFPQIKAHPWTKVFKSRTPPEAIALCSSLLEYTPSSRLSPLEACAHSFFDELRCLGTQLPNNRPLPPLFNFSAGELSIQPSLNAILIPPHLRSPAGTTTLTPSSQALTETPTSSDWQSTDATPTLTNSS
"IC50 [1, 3] [nM]","IC50 [2, 4] [nM]","IC50 [1, 7] [nM]","IC50 [2, 8] [nM]",SMILES,other results
100 to 1000,100 to 1000,,,C[C@@H]1CCC[C@@]2(C1)C1=C(CC(C)(C)CC1=O)Nc1n[nH]cc12 [Compound 874537],
,,,,CC[C@@]1(c2cccc(N(C)c3ccccn3)c2)C2=C(CC(C)(C)CC2=O)Nc2n[nH]cc21 [Compound 875608],"IC50 [1, 5]: 1000 to 5000 nM; IC50 [2, 6]: > 5000 nM"
,,> 5000,> 5000,Cc1[nH]nc2c1C1(CCCCC1)C1=C(CC(C)(C)CC1=O)N2 [Compound 877288],
,,> 5000,> 5000,CCC1(CC)C2=C(CC(C)(C)CC2=O)Nc2n[nH]c(C3CC3)c21 [Compound 877294],
,,,,Cc1[nH]nc2c1C1(CC3(CCC3)C1)C1=C(CC(C)(C)CC1=O)N2 [Compound 877295],"IC50 [1, 9]: > 5000 nM; IC50 [2, 10]: > 5000 nM"
,,,,CCC1(c2cccc(N3CCCCC3)c2)C2=C(CC(C)(C)CC2=O)Nc2n[nH]c(C)c21 (centres unmarked) [Compound 877311],"IC50 [1, 5]: ≤ 100 nM; IC50 [2, 6]: ≤ 100 nM"
100 to 1000,100 to 1000,,,CC1(C)CC(=O)C2=C(C1)Nc1n[nH]cc1[C@]21CCOC1 [Compound 877313],
,,100 to 1000,1000 to 5000,CC1(C)CC(=O)C2=C(C1)Nc1n[nH]cc1[C@@]21CCOC1 [Compound 877314],
≤ 100,≤ 100,,,CC1(C)CC(=O)C2=C(C1)Nc1n[nH]cc1C21CCC(c2ccccc2)CC1 (centres unmarked) [Compound 877320],
,,> 5000,> 5000,CC1(C)CC(=O)C2=C(C1)Nc1n[nH]cc1C21CCN(c2ccncc2)CC1 [Compound 880765],
≤ 100,≤ 100,,,CC1(C)CC(=O)C2=C(C1)Nc1n[nH]cc1C21CCN(S(C)(=O)=O)CC1 [Compound 880776],
100 to 1000,1000 to 5000,,,CC1(C)CC(=O)C2=C(Nc3n[nH]cc3C23CCOCC3)[C@H]1F [Compound 883833],
100 to 1000,1000 to 5000,,,CC1(C)CC(=O)C2=C(Nc3n[nH]cc3C23CCOCC3)[C@@H]1F [Compound 883834],
100 to 1000,100 to 1000,,,CC1(C)CC2=C(C(=O)[C@@H]1F)C1(CCOCC1)c1c[nH]nc1N2 [Compound 883835],
100 to 1000,1000 to 5000,,,CC1(C)CC2=C(C(=O)[C@H]1F)C1(CCOCC1)c1c[nH]nc1N2 [Compound 883836],
100 to 1000,100 to 1000,,,C[C@H]1CC[C@]2(C1)C1=C(CC(C)(C)CC1=O)Nc1n[nH]cc12 [Compound 883840],
100 to 1000,100 to 1000,,,C[C@@H]1CC[C@@]2(C1)C1=C(CC(C)(C)CC1=O)Nc1n[nH]cc12 [Compound 883841],
100 to 1000,1000 to 5000,,,CC1(C)CC(=O)C2=C(C1)Nc1n[nH]cc1[C@@]21CCCC(C)(C)C1 [Compound 883846],
,,≤ 100,100 to 1000,CCC1(c2cccc(-c3ccnc(OC)c3)c2)C2=C(CC(C)(C)CC2=O)Nc2n[nH]cc21 (centres unmarked) [Compound 883850],
,,≤ 100,≤ 100,CCC1(c2cccc(-c3c(C)nn(C)c3C)c2)C2=C(CC(C)(C)CC2=O)Nc2n[nH]cc21 (centres unmarked) [Compound 883851],
≤ 100,100 to 1000,,,CC1(C)CC(=O)C2=C(C1)Nc1n[nH]cc1C21CC(C)(C)C1 [Compound 883864],
≤ 100,100 to 1000,,,Cc1[nH]nc2c1C1(CCCCC1)C1=C(CC(C)(C)CC1=O)N2 [Compound 883865],
,,,,CCC1(c2ccccc2)C2=C(CCN(C)C2=O)Nc2n[nH]cc21 (centres unmarked) [Compound 883867],"IC50 [1, 9]: > 5000 nM; IC50 [2, 10]: > 5000 nM"

"IC50 [1, 3] [nM]","IC50 [2, 4] [nM]","IC50 [1, 7] [nM]","IC50 [2, 8] [nM]",SMILES,other results
,,≤ 100,≤ 100,CCC1(c2cccc(C)c2)C2=C(CC(C)(C)CC2=O)Nc2n[nH]c(C(F)(F)F)c21 (centres unmarked) [Compound 883873],"IC50 [1, 11]: ≤ 100 nM; IC50 [2, 12]: 100 to 1000 nM"
,,≤ 100,≤ 100,CCC1(c2cccc(N3CCCC3)c2)C2=C(CC(C)(C)CC2=O)Nc2n[nH]c(C)c21 (centres unmarked) [Compound 883874],"IC50 [1, 11]: ≤ 100 nM; IC50 [2, 12]: 100 to 1000 nM"
,,100 to 1000,1000 to 5000,CC[C@]1(c2cccc(N3CCCC3)c2)C2=C(CC(C)(C)CC2=O)Nc2n[nH]c(C)c21 [Compound 883875],
100 to 1000,100 to 1000,,,CC1(C)CC(=O)C2=C(C1)Nc1n[nH]cc1C21CCN(CC(F)F)CC1 [Compound 883962],
≤ 100,100 to 1000,,,CC1(C)CC(=O)C2=C(C1)Nc1n[nH]cc1C21CCC(F)(F)CC1 [Compound 883972],
≤ 100,100 to 1000,,,CC1(C)CC(=O)C2=C(C1)Nc1n[nH]cc1C21CCSC1 (centres unmarked) [Compound 883973],
,,,,CC1(C)CC(=O)C2=C(C1)Nc1n[nH]cc1C21CCC2(CC1)COC2 [Compound 883977],"IC50 [1, 9]: ≤ 100 nM; IC50 [2, 10]: 100 to 1000 nM"
100 to 1000,100 to 1000,,,CC1(C)CC(=O)C2=C(C1)Nc1n[nH]cc1C21CCCCCC1 [Compound 883978],
,,,,CC[C@@]1(c2cccc(C(F)(F)F)c2)C2=C(Nc3n[nH]cc31)[C@H](C)CN(C)C2=O [Compound 883980],"IC50 [1, 9]: ≤ 100 nM; IC50 [1, 11]: 100 to 1000 nM; IC50 [2, 10]: ≤ 100 nM; IC50 [2, 12]: 1000 to 5000 nM"
,,,,CC[C@]1(c2cccc(C(F)(F)F)c2)C2=C(Nc3n[nH]cc31)[C@@H](C)CN(C)C2=O [Compound 883981],"IC50 [1, 9]: > 5000 nM; IC50 [2, 10]: > 5000 nM"
,,,,CC[C@]1(c2cccc(C(F)(F)F)c2)C2=C(Nc3n[nH]cc31)[C@H](C)CN(C)C2=O [Compound 883982],"IC50 [1, 9]: > 5000 nM; IC50 [2, 10]: > 5000 nM"
,,≤ 100,≤ 100,CCC1(c2cccc(-c3ccncc3)c2)C2=C(CC(C)(C)CC2=O)Nc2n[nH]cc21 (centres unmarked) [Compound 883984],
,,≤ 100,≤ 100,CCC1(c2cccc(-c3ccncc3F)c2)C2=C(CC(C)(C)CC2=O)Nc2n[nH]cc21 (centres unmarked) [Compound 883986],
,,≤ 100,100 to 1000,CCC1(c2cccc(-c3ccnc(C)c3)c2)C2=C(CC(C)(C)CC2=O)Nc2n[nH]c(C)c21 (centres unmarked) [Compound 883987],
,,≤ 100,100 to 1000,CCC1(c2cccc(-c3ccnc(C(F)(F)F)c3)c2)C2=C(CC(C)(C)CC2=O)Nc2n[nH]c(C)c21 (centres unmarked) [Compound 883989],
,,≤ 100,100 to 1000,CCC1(c2cccc(-c3ccnc(N(C)C)c3)c2)C2=C(CC(C)(C)CC2=O)Nc2n[nH]c(C)c21 (centres unmarked) [Compound 883990],
,,≤ 100,≤ 100,CCC1(c2cccc(-c3ccncc3C)c2)C2=C(CC(C)(C)CC2=O)Nc2n[nH]c(C)c21 (centres unmarked) [Compound 883991],
,,≤ 100,≤ 100,CCC1(c2cccc(-c3ccnn3C)c2)C2=C(CC(C)(C)CC2=O)Nc2n[nH]c(C)c21 (centres unmarked) [Compound 883992],
,,≤ 100,≤ 100,CCC1(c2cccc(-c3cnn(C)c3C)c2)C2=C(CC(C)(C)CC2=O)Nc2n[nH]c(C)c21 (centres unmarked) [Compound 883993],
,,≤ 100,≤ 100,CCC1(c2cccc(-c3cn[nH]c3)c2)C2=C(CC(C)(C)CC2=O)Nc2n[nH]c(C)c21 (centres unmarked) [Compound 883994],
,,≤ 100,≤ 100,CCC1(c2cccc(-c3c(C)nn(C)c3C)c2)C2=C(CC(C)(C)CC2=O)Nc2n[nH]c(C)c21 (centres unmarked) [Compound 883995],
,,≤ 100,100 to 1000,CCC1(c2cccc(-c3cnn(CCOC)c3)c2)C2=C(CC(C)(C)CC2=O)Nc2n[nH]c(C)c21 (centres unmarked) [Compound 883996],
,,≤ 100,≤ 100,CCC1(c2cccc(-c3ccn(C)n3)c2)C2=C(CC(C)(C)CC2=O)Nc2n[nH]c(C)c21 (centres unmarked) [Compound 883999],
